How the values were obtained:
[1] = biological target: T1, ERK1 (Homo sapiens, UniProt P27361); assay: ERK1 HTRF (biochemical) assay
T1 construct: purchased Jubilant Biosys
Method: (§1) ERK1 and ERK2 HTRF (Biochemical) Assays
These assays employed a homogeneous time resolved fluorescence (HTRF) technique. […] The plate was incubated at room temperature for 60 min with shaking. […] The IC50 values (half maximal inhibitory concentration values) were subsequently determined using a sigmoidal dose-response curve (variable slope) in GraphPad Prism® 5 software.

[2] = biological target: T2, ERK2 (Homo sapiens, UniProt P28482); assay: ERK2 HTRF (biochemical) assay
T2 construct: purchased Jubilant Biosys
Method: as §1
These assays employed a homogeneous time resolved fluorescence (HTRF) technique. The compounds were serially diluted by half-log with concentrations ranging from 0.0005 to 10 uM in the assay buffer (50 mM Tris pH=7.5, 1 mM EGTA, 2 mM DTT, 10 mM MgCl2, 0.1% Tween-20) and 20 uL of substrate-ATP mix [1 uM Biotin-LC-Myelin Basic Protein (MBP) derivatized Peptide (Anaspec)-24 uM ATP (Sigma)] was added to each well of the assay plate. Then 10 uL of enzyme mix [25 nM ERK1 or ERK2 (Jubilant Biosys) in assay buffer] was added to each well. The plate was incubated at room temperature for 60 min with shaking. The HTRF mix [625 nM LANCE® Ultra Europium-anti-phospho-MBP (Perkin Elmer) and 2 nM Phycolink® Streptavidin-Allophycocyanin (SA-APC) (Prozyme) in HTRF buffer (50 mM Tris-HCl pH=7.5, 100 mM NaCl, 0.1% BSA, 0.05% Tween20, 0.5 mM EDTA)] was prepared and 75 uL of this mix was added to the HTRF plate. After incubation for 60 min at room temperature, 10 uL of the reaction mixture was transferred to the HTRF assay plate and incubated for 45 min at room temperature with shaking. Plate was read using Pherastar in HTRF mode (excitation 337 nm, emission 665 & 620 nm). The IC50 values (half maximal inhibitory concentration values) were subsequently determined using a sigmoidal dose-response curve (variable slope) in GraphPad Prism® 5 software.

T2 sequence (P28482 whole entry): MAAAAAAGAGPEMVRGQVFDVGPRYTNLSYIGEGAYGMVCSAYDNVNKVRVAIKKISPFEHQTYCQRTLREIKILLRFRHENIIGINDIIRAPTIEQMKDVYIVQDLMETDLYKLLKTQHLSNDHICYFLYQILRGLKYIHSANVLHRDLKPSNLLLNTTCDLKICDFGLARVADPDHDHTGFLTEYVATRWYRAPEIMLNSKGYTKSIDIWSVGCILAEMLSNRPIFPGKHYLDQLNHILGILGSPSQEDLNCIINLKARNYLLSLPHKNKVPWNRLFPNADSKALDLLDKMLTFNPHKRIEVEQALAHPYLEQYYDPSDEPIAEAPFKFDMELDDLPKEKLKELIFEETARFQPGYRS
T1 sequence (P27361 whole entry): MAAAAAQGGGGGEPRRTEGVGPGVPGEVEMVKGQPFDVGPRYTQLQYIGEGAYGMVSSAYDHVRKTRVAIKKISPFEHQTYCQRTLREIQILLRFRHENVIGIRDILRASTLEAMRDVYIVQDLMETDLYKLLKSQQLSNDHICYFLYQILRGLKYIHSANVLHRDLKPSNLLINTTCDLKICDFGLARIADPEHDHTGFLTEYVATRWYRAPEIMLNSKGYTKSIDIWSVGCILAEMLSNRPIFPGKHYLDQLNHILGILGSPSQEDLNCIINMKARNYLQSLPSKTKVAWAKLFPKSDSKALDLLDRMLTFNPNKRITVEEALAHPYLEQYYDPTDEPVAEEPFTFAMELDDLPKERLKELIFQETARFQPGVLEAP

| IC50 ([1]; HTRF) [nM] | IC50 ([2]; HTRF) [nM] | Structure (SMILES) | also measured |
| --- | --- | --- | --- |
| < 50 | ≤ 50 | Cc1cnc(NC2CCOCC2)nc1-n1cnc(C(=O)NCc2ccccc2CO)c1 [Example 287, N-(2-(hydroxy-methyl)benzyl)-1-(5-methyl-2-((tetrahydro-2H-pyran-4-yl)amino)-pyrimidin-4-yl)-1H-imidazole-4-carboxamide] | – |
| 100 to 500 | 50 to 100 | CN1CCN(c2ccc(Nc3nccc(-n4cc(NC(=O)N[C@H](CO)c5cccc(Cl)c5)cn4)n3)cc2)CC1 [Compound 22, (S)-1-(1-(3-chlorophenyl)-2-hydroxyethyl)-3-(1-(2-((4-(4-methylpiperazin-1-yl)-phenyl)amino)pyrimidin-4-yl)-1H-pyrazol-4-yl)urea] | – |
| < 50 | ≤ 50 | O=C(Nc1cnn(-c2ccnc(Nc3ccc(F)cc3Cl)n2)c1)N[C@H](CO)c1cccc(Cl)c1 [Compound 20, (S)-1-(1-(2-((2-chloro-4-fluorophenyl)amino)pyrimidin-4-yl)-1H-pyrazol-4-yl)-3-(1-(3-chlorophenyl)-2-hydroxyethyl)urea] | – |
| < 50 | ≤ 50 | Cc1cnc(Nc2ccnn2C)nc1-n1cnc(C(=O)N[C@H](CN)c2cccc(Cl)c2)c1 [Example 280, (S)-N-(2-amino-1-(3-chlorophenyl)-ethyl)-1-(5-methyl-2-((1-methyl-1H-pyrazol-5-yl)amino)-pyrimidin-4-yl)-1H-imidazole-4-carboxamide] | – |
| – | – | Cc1cnc(N[C@H]2CCOC2)nc1-n1cnc(C(=O)NCc2cccc(Cl)c2C)c1 [Example 331, (S)-N-(3-chloro-2-methylbenzyl)-1-(5-methyl-2-((tetrahydrofuran-3-yl)amino)pyrimidin-4-yl)-1H-imidazole-4-carboxamide] | IC50 ([1]; HTRF biochemical assay): < 50 nM; IC50 ([2]; HTRF biochemical assay): ≤ 50 nM |
| < 50 | ≤ 50 | Cc1cnc(Nc2ccc3c(c2)OCO3)nc1-n1ccc(C(=O)NC(CO)c2ccc(F)cc2)c1 (stereo not drawn) [Compound 172, 1-(2-(benzo[d][1,3]dioxol-5-ylamino)-5-methylpyrimidin-4-yl)-N-(1-(4-fluorophenyl)-2-hydroxyethyl)-1H-pyrrole-3-carboxamide] | – |
| < 50 | ≤ 50 | Cc1cnc(NC2CCCN(C)C2)nc1-n1ccc(C(=O)NC(CO)c2cccc(Cl)c2)c1 (stereo not drawn) [Compound 199, N-(1-(3-chloro-phenyl)-2-hydroxy-ethyl)-1-(5-methyl-2-((1-methyl-piperidin-3-yl)-amino)pyrimidin-4-yl)-1H-pyrrole-3-carboxamide] | – |
| < 50 | ≤ 50 | Cc1cnc(NC2CCNCC2)nc1-n1cnc(C(=O)NC(CO)c2cccc(Cl)c2)c1 (stereo not drawn) [Compound 214, N-(1-(3-chlorophenyl)-2-hydroxyethyl)-1-(5-methyl-2-(piperidin-4-ylamino)pyrimidin-4-yl)-1H-imidazole-4-carboxamide] | – |
| 100 to 500 | 100 to 500 | CCNc1ncc(C)c(-n2ccc(C(=O)NC(CO)c3ccccc3)c2)n1 (stereo not drawn) [Compound 130, 1-(2-(ethylamino)-5-methylpyrimidin-4-yl)-N-(2-hydroxy-1-phenylethyl)-1H-pyrrole-3-carboxamide] | – |
| 100 to 500 | 100 to 500 | Cc1cnc(Nc2ccc(N3CCC(N4CCNCC4)CC3)cc2)nc1-n1ccc(C(=O)NC(CO)c2ccccc2)c1 (stereo not drawn) [Compound 178, N-(2-hydroxy-1-phenylethyl)-1-(5-methyl-2-((4-(4-(piperazin-1-yl)-piperidin-1-yl)-phenyl)amino)pyrimidin-4-yl)-1H-pyrrole-3-carboxamide] | – |
| < 50 | ≤ 50 | CC[C@H](CO)Nc1ncc(C)c(-n2ccc(C(=O)NC(CO)c3cccc(Cl)c3)c2)n1 (stereo partly drawn) [Compound 167, N-(1-(3-chloro-phenyl)-2-hydroxy-ethyl)-1-(2-(((R)-1-hydroxybutan-2-yl)amino)-5-methylpyrimidin-4-yl)-1H-pyrrole-3-carboxamide] | – |
| – | > 2500 | C[C@@H](NC(=O)Nc1cnn(-c2ccnc(Nc3ccccc3Cl)n2)c1)c1cccc(Cl)c1 [Compound 10] | – |
| – | 100 to 500 | Cc1cnc(Nc2ccc3ocnc3c2)nc1-n1ccc(C(=O)NC(CO)c2ccccc2)c1 (stereo not drawn) [Compound 104] | – |
| < 50 | – | Cc1cnc(Nc2ccc(F)cc2Cl)nc1-n1cc(NC(=O)N[C@H](CO)c2ccc(F)c(Cl)c2)cn1 [Compound 26, (S)-1-(1-(3-chloro-4-fluorophenyl)-2-hydroxyethyl)-3-(1-(2-((2-chloro-4-fluorophenyl)amino)-5-methyl-pyrimidin-4-yl)-1H-pyrazol-4-yl)urea] | – |
| – | 100 to 500 | O=C(NC(CO)c1cccc(Cl)c1)c1cnn(-c2ccnc(Nc3ccccc3)n2)c1 (stereo not drawn) [Compound 52, N-(1-(3-chloro-phenyl)-2-hydroxy-ethyl)-1-(2-(phenyl-amino)pyrimidin-4-yl)-1H-pyrazole-4-carboxamide] | – |
| – | 500 to 2500 | Cc1cnc(Nc2ccccc2Cl)nc1-n1cc(NC(=O)N[C@@H](CO)c2cccc(Cl)c2)cn1 [Compound 61, (R)-1-(1-(3-chlorophenyl)-2-hydroxyethyl)-3-(1-(2-((2-chloro-phenyl)amino)-5-methylpyrimidin-4-yl)-1H-pyrazol-4-yl)urea] | – |
| – | ≤ 50 | Cc1cnc(Nc2ccc3c(c2)OCO3)nc1-n1cc(C(=O)N[C@H](CO)c2cccc(Cl)c2)cn1 [Compound 50, (S)-1-(2-(benzo[d][1,3]dioxol-5-ylamino)-5-methylpyrimidin-4-yl)-N-(1-(3-chloro-phenyl)-2-hydroxy-ethyl)-1H-pyrazole-4-carboxamide] | – |
| 100 to 500 | – | CC(NC(=O)Nc1cnn(-c2ccnc(Nc3ccccc3Cl)n2)c1)c1cccc(Cl)c1 (stereo not drawn) [Compound 5, 1-(1-(2-((2-chlorophenyl)amino)pyrimidin-4-yl)-1H-pyrazol-4-yl)-3-(1-(3-chloro-phenyl)ethyl)urea] | – |
| – | > 2500 | Cc1c(NC(=O)N[C@H](CO)c2cccc(Cl)c2)cnn1-c1ccnc(Nc2ccccc2Cl)n1 [Compound 11, (S)-1-(1-(3-chlorophenyl)-2-hydroxyethyl)-3-(1-(2-((2-chloro-phenyl)amino)pyrimidin-4-yl)-5-methyl-1H-pyrazol-4-yl)urea] | – |
| – | > 2500 | O=C(NCc1cccc(Cl)c1)Nc1cnn(-c2ccnc(Nc3ccccc3Cl)n2)c1 [Compound 9, 1-(3-chlorobenzyl)-3-(1-(2-((2-chloro-phenyl)amino)pyrimidin-4-yl)-1H-pyrazol-4-yl)urea] | – |
| – | 100 to 500 | NCC(Cc1ccccc1)NC(=O)c1ccn(-c2ccnc(Nc3ccc(F)cc3)c2)c1 (stereo not drawn) [Compound 119, N-(1-amino-3-phenylpropan-2-yl)-1-(2-((4-fluoro-phenyl)amino)pyridin-4-yl)-1H-pyrrole-3-carboxamide] | – |
| 50 to 100 | – | COc1cc(N2CCN(C(C)=O)CC2)ccc1Nc1nccc(-n2cc(NC(=O)N[C@H](CO)c3cccc(Cl)c3)cn2)n1 [Compound 15, (S)-1-(1-(2-((4-(4-acetylpiperazin-1-yl)-2-methoxy-phenyl)amino)pyrimidin-4-yl)-1H-pyrazol-4-yl)-3-(1-(3-chlorophenyl)-2-hydroxyethyl)urea] | – |
| – | 100 to 500 | Cc1cnc(Nc2ccc(F)cc2Cl)nc1-n1ccc(C(=O)N[C@@H](CN(C)C)c2ccccc2)c1 [Compound 97, (R)-1-(2-((2-chloro-4-fluorophenyl)amino)-5-methy-lpyrimidin-4-yl)-N-(2-(dimethylamino)-1-phenylethyl)-1H-pyrrole-3-carboxamide] | – |
| – | > 2500 | O=C(NC(CO)c1ccccc1)c1ccn(-c2nc(Nc3ccc(F)cc3Cl)ncc2C(F)(F)F)c1 (stereo not drawn) [Compound 122, 1-(2-((2-chloro-4-fluorophenyl)amino)-5-(trifluoro-methyl)pyrimidin-4-yl)-N-(2-hydroxy-1-phenylethyl)-1H-pyrrole-3-carboxamide] | – |
| – | ≤ 50 | Cc1cnc(Nc2ccc3occc3c2)nc1-n1ccc(C(=O)NC(CO)c2ccccc2)c1 (stereo not drawn) [Compound 65, 1-(2-(benzofuran-5-ylamino)-5-methylpyrimidin-4-yl)-N-(2-hydroxy-1-phenylethyl)-1H-pyrrole-3-carboxamide] | – |
| – | 100 to 500 | Cc1cnc(NC2CCOCC2)nc1-n1ccc(C(=O)NC(CO)c2ccccc2)c1 (stereo not drawn) [Compound 120, N-(2-hydroxy-1-phenylethyl)-1-(5-methyl-2-((tetrahydro-2H-pyran-4-yl)amino)pyrimidin-4-yl)-1H-pyrrole-3-carboxamide] | – |
| < 50 | – | Cc1cnc(Nc2ccc(F)cc2Cl)nc1-n1cc(NC(=O)N[C@H](CO)c2cccc(Cl)c2)cn1 [Compound 25, (S)-1-(1-(2-((2-chloro-4-fluoro-phenyl)amino)-5-methylpyrimidin-4-yl)-1H-pyrazol-4-yl)-3-(1-(3-chloro-phenyl)-2-hydroxy-ethyl)urea] | – |
| – | 100 to 500 | Cc1cnc(Nc2ccc(F)cc2Cl)nc1-n1cc(NC(=O)N[C@@H](CO)c2cccc(Cl)c2)cn1 [Compound 56, (R)-1-(1-(2-((2-chloro-4-fluoro-phenyl)amino)-5-methylpyrimidin-4-yl)-1H-pyrazol-4-yl)-3-(1-(3-chloro-phenyl)-2-hydroxy-ethyl)urea] | – |

— patent US9896445B2, “Heterocyclic inhibitors of ERK1 and ERK2 and their use in the treatment of cancer” (Asana Biosciences, LLC, priority 2015, dated 2018)
